In the supplement of paper PMC11061612:

What was measured:
Gemcitabine = compound: Nc1ccn([C@@H]2O[C@H](CO)[C@@H](O)C2(F)F)c(=O)n1 [Gemcitabine]; conditions: max 0.3 µM
Method in brief: (§1)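 In 1536-well plates, cancer cell lines in 7.5 μl DMEM/F12 or RPMI with 10% FBS spent 24 hours at 37°C and 5% CO2 and were then dosed for 72 hours with final DMSO typically 0.2%. Viability was read by CellTiter-Glo 2.0 luminescence and scaled between blank-well and DMSO-well means. The single-agent IC50 was fitted from dose responses using a logistic curve in a non-linear mixed effects model, and that logistic curve had two parameters.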

Paclitaxel = compound: CC(=O)O[C@H]1C(=O)[C@@]2(C)[C@H]([C@H](OC(=O)c3ccccc3)[C@]3(O)C[C@H](OC(=O)[C@H](O)[C@@H](NC(=O)c4ccccc4)c4ccccc4)C(C)=C1C3(C)C)[C@]1(OC(C)=O)CO[C@@H]1C[C@@H]2O [Paclitaxel]; conditions: max 3 µM
Method in brief: as §1

Taselisib = compound: Cc1nc(-c2cn3c(n2)-c2ccc(-c4cnn(C(C)(C)C(N)=O)c4)cc2OCC3)n(C(C)C)n1 [Taselisib]; conditions: max 10 µM
Method in brief: as §1

[1] = compound: O=C(Nc1ccc2[nH]nc(-c3ccncc3)c2c1)[C@@H]1CCN(CC(=O)N2CCN(c3ccc(-c4ncccn4)cc3)CC2)C1; conditions: max 5 µM
Method in brief: as §1

Etoposide = compound: COc1cc([C@@H]2c3cc4c(cc3[C@@H](O[C@@H]3O[C@@H]5CO[C@@H](C)O[C@H]5[C@H](O)[C@H]3O)[C@H]3COC(=O)[C@H]23)OCO4)cc(OC)c1O [Etoposide]; conditions: max 10 µM
Method in brief: as §1

AZD1775 = compound: C=CCn1c(=O)c2cnc(Nc3ccc(N4CCN(C)CC4)cc3)nc2n1-c1cccc(C(C)(C)O)n1 [AZD1775]; conditions: max 3 µM
Method in brief: as §1

AZD1390 = compound: CC(C)n1c(=O)n(C)c2cnc3cc(F)c(-c4ccc(OCCCN5CCCCC5)nc4)cc3c21 [AZD1390]; conditions: max 0.3 µM
Method in brief: as §1

Gefitinib = compound: COc1cc2ncnc(Nc3ccc(F)c(Cl)c3)c2cc1OCCCN1CCOCC1 [Gefitinib]; conditions: max 10 µM
Method in brief: as §1

5-Fluorouracil = compound: O=c1[nH]cc(F)c(=O)[nH]1 [5-Fluorouracil]; conditions: max 20 µM
Method in brief: as §1

SRA737 = compound: N#Cc1cnc(Nc2cc(NC[C@H]3CNCCO3)c(C(F)(F)F)cn2)cn1 [SRA737]; conditions: max 10 µM
Method in brief: as §1

Trametinib = compound: CC(=O)Nc1cccc(-n2c(=O)n(C3CC3)c(=O)c3c(Nc4ccc(I)cc4F)n(C)c(=O)c(C)c32)c1 [Trametinib]; conditions: max 1 µM
Method in brief: as §1

SN-38 = compound: CCc1c2c(nc3ccc(O)cc13)-c1cc3c(c(=O)n1C2)COC(=O)[C@]3(O)CC [SN-38]; conditions: max 0.3 µM
Method in brief: as §1

AZD5363 = compound: C1CN(CCC1(C(=O)N[C@@H](CCO)C2=CC=C(C=C2)Cl)N)C3=NC=NC4=C3C=CN4 [AZD5363]; conditions: max 10 µM
Method in brief: as §1

Carboplatin = compound: C1CC(C1)(C(=O)[O-])C(=O)[O-].N.N.[Pt+2] [Carboplatin]; conditions: max 10 µM
Method in brief: as §1

Alisertib = compound: COc1cc(Nc2ncc3c(n2)-c2ccc(Cl)cc2C(c2c(F)cccc2OC)=NC3)ccc1C(=O)O [Alisertib]; conditions: max 10 µM
Method in brief: as §1

Savolitinib = compound: C[C@@H](c1ccc2nccn2c1)n1nnc2ncc(-c3cnn(C)c3)nc21 [Savolitinib]; conditions: max 1 µM
Method in brief: as §1

Palbociclib = compound: CC(=O)c1c(C)c2cnc(Nc3ccc(N4CCNCC4)cn3)nc2n(C2CCCC2)c1=O [Palbociclib]; conditions: max 10 µM
Method in brief: as §1

MK-2206 = compound: NC1(c2ccc(-c3nc4ccn5c(=O)[nH]nc5c4cc3-c3ccccc3)cc2)CCC1 [MK-2206]; conditions: max 10 µM
Method in brief: as §1

Olaparib = compound: O=C(c1cc(Cc2n[nH]c(=O)c3ccccc23)ccc1F)N1CCN(C(=O)C2CC2)CC1 [Olaparib]; conditions: max 10 µM
Method in brief: as §1

Crizotinib = compound: C[C@@H](Oc1cc(-c2cnn(C3CCNCC3)c2)cnc1N)c1c(Cl)ccc(F)c1Cl [Crizotinib]; conditions: max 10 µM
Method in brief: as §1

Lapatinib = compound: CS(=O)(=O)CCNCc1ccc(-c2ccc3ncnc(Nc4ccc(OCc5cccc(F)c5)c(Cl)c4)c3c2)o1 [Lapatinib]; conditions: max 10 µM
Method in brief: as §1

AZD7648 = compound: Cc1cc2ncnn2cc1Nc1ncc2c(n1)n(C1CCOCC1)c(=O)n2C [AZD7648]; conditions: max 10 µM
Method in brief: as §1

AZD8186 = compound: C[C@@H](Nc1cc(F)cc(F)c1)c1cc(C(=O)N(C)C)cc2c(=O)cc(N3CCOCC3)oc12 [AZD8186]; conditions: max 10 µM
Method in brief: as §1

AZD2811 = compound: CCN(CCO)CCCOc1ccc2c(Nc3cc(CC(=O)Nc4cccc(F)c4)[nH]n3)ncnc2c1 [AZD2811]; conditions: max 1 µM
Method in brief: as §1

Venetoclax = compound: CC1(C)CCC(CN2CCN(c3ccc(C(=O)NS(=O)(=O)c4ccc(NCC5CCOCC5)c([N+](=O)[O-])c4)c(Oc4cnc5[nH]ccc5c4)c3)CC2)=C(c2ccc(Cl)cc2)C1 [Venetoclax]; conditions: max 1 µM
Method in brief: as §1

AZD0156 = compound: CN(C)CCCOc1ccc(-c2ccc3ncc4c(c3c2)n(C2CCOCC2)c(=O)n4C)cn1 [AZD0156]; conditions: max 3 µM
Method in brief: as §1

AZD6738 = compound: C[C@@H]1COCCN1C2=NC(=NC(=C2)C3(CC3)[S@](=N)(=O)C)C4=C5C=CNC5=NC=C4 [AZD6738]; conditions: max 10 µM
Method in brief: as §1

AZD5153 = compound: COc1nnc2ccc(N3CCC(c4ccc(OCCN5CCN(C)C(=O)[C@H]5C)cc4)CC3)nn12 [AZD5153]; conditions: max 1 µM
Method in brief: as §1

Prexasertib = compound: COc1cccc(OCCCN)c1-c1cc(Nc2cnc(C#N)cn2)n[nH]1 [Prexasertib]; conditions: max 1 µM
Method in brief: as §1

Selumetinib = compound: Cn1cnc2c(F)c(Nc3ccc(Br)cc3Cl)c(C(=O)NOCCO)cc21 [Selumetinib]; conditions: max 10 µM
Method in brief: as §1

AZD5991 = compound: Cc1c2c(nn1C)CSCc1cc(n(C)n1)CSc1cc(c3ccccc3c1)OCCCc1c(C(=O)O)n(C)c3c-2c(Cl)ccc13 [AZD5991]; conditions: max 1 µM
Method in brief: as §1

Dasatinib = compound: CC1=C(C(=CC=C1)Cl)NC(=O)C2=CN=C(S2)NC3=CC(=NC(=N3)C)N4CCN(CC4)CCO [Dasatinib]; conditions: max 2 µM
Method in brief: as §1

SG3199 = compound: CC1=CN2[C@@H](C1)C=NC3=CC(=C(C=C3C2=O)OC)OCCCCCOC4=C(C=C5C(=C4)N=C[C@@H]6CC(=CN6C5=O)C)OC [SG3199]; conditions: max 0.001 µM
Method in brief: as §1

Doxorubicin = compound: COc1cccc2c1C(=O)c1c(O)c3c(c(O)c1C2=O)C[C@@](O)(C(=O)CO)C[C@@H]3O[C@H]1C[C@H](N)[C@H](O)[C@H](C)O1 [Doxorubicin]; conditions: max 1 µM
Method in brief: as §1

AZD4320 = compound: CN(CC[C@H](CSC1=CC=CC=C1)NC2=C(C=C(C=C2)S(=O)(=O)NC(=O)C3=CC=C(C=C3)N4CCC(CC4)[C@H](C5=CC=CC=C5C6=CC=C(C=C6)Cl)O)S(=O)(=O)C(F)(F)F)CCO [AZD4320]; conditions: max 1 µM
Method in brief: as §1

| Cell Line | IC50, cell viability 72 h (Gemcitabine) [µM] | IC50, cell viability 72 h (Paclitaxel) [µM] | IC50, cell viability 72 h (Taselisib) [µM] | IC50, cell viability 72 h [1] [µM] | IC50, cell viability 72 h (Etoposide) [µM] | IC50, cell viability 72 h (AZD1775) [µM] | IC50, cell viability 72 h (AZD1390) [µM] | IC50, cell viability 72 h (Gefitinib) [µM] | IC50, cell viability 72 h (5-Fluorouracil) [µM] | IC50, cell viability 72 h (SRA737) [µM] | IC50, cell viability 72 h (Trametinib) [µM] | IC50, cell viability 72 h (SN-38) [µM] | IC50, cell viability 72 h (AZD5363) [µM] | IC50, cell viability 72 h (Carboplatin) [µM] | IC50, cell viability 72 h (Alisertib) [µM] | IC50, cell viability 72 h (Savolitinib) [µM] | IC50, cell viability 72 h (Palbociclib) [µM] | IC50, cell viability 72 h (MK-2206) [µM] | IC50, cell viability 72 h (Olaparib) [µM] | IC50, cell viability 72 h (Crizotinib) [µM] | IC50, cell viability 72 h (Lapatinib) [µM] | IC50, cell viability 72 h (AZD7648) [µM] | IC50, cell viability 72 h (AZD8186) [µM] | IC50, cell viability 72 h (AZD2811) [µM] | IC50, cell viability 72 h (Venetoclax) [µM] | IC50, cell viability 72 h (AZD0156) [µM] | IC50, cell viability 72 h (AZD6738) [µM] | IC50, cell viability 72 h (AZD5153) [µM] | IC50, cell viability 72 h (Prexasertib) [µM] | IC50, cell viability 72 h (Selumetinib) [µM] | IC50, cell viability 72 h (AZD5991) [µM] | IC50, cell viability 72 h (Dasatinib) [µM] | IC50, cell viability 72 h (SG3199) [µM] | IC50, cell viability 72 h (Doxorubicin) [µM] | IC50, cell viability 72 h (AZD4320) [µM] |
| --- | --- | --- | --- | --- | --- | --- | --- | --- | --- | --- | --- | --- | --- | --- | --- | --- | --- | --- | --- | --- | --- | --- | --- | --- | --- | --- | --- | --- | --- | --- | --- | --- | --- | --- | --- |
| ES8 (Ewing's Sarcoma) | 0.00564 | < 0.003 | 0.8 | > 5 | 0.358 | 0.522 | > 0.3 | > 10 | > 20 | > 10 | > 1 | 0.00141 | 8.22 | > 10 | 0.0162 | > 1 | 9.5 | 5.79 | 3.25 | 1.47 | > 10 | > 10 | > 10 | 0.0058 | > 1 | > 3 | 3.46 | 0.165 | 0.0417 | > 10 | > 1 | > 2 | > 0.001 | 0.0798 | > 1 |
| GR-ST (B-Lymphoblastic Leukemia) | 0.0198 | 0.00998 | 0.874 | > 5 | 9.02 | 0.375 | > 0.3 | > 10 | > 20 | 1.75 | > 1 | 0.00671 | 4.13 | > 10 | > 10 | > 1 | 3.06 | 2.26 | > 10 | 2.38 | 5.91 | > 10 | 4.95 | > 1 | > 1 | > 3 | 1.74 | 0.0412 | 0.0168 | > 10 | > 1 | > 2 | > 0.001 | 0.684 | > 1 |
| K-562 (Chronic Myelogenous Leukemia) | > 0.3 | 0.0341 | > 10 | > 5 | > 10 | 0.624 | > 0.3 | > 10 | > 20 | 4.12 | > 1 | 0.112 | > 10 | > 10 | 4.68 | > 1 | > 10 | > 10 | > 10 | 2.11 | > 10 | > 10 | > 10 | > 1 | > 1 | > 3 | 4.14 | > 1 | 0.0195 | > 10 | > 1 | 0.0223 | > 0.001 | > 1 | > 1 |
| L-540 (Hodgkin's Lymphoma) | 0.00755 | 0.0393 | > 10 | > 5 | 0.779 | 0.299 | > 0.3 | > 10 | 0.835 | 2.46 | > 1 | 0.00277 | > 10 | > 10 | 3.88 | > 1 | > 10 | > 10 | > 10 | 6.59 | > 10 | > 10 | > 10 | > 1 | > 1 | > 3 | 0.761 | 0.104 | 0.00845 | > 10 | 0.0998 | > 2 | > 0.001 | 0.157 | > 1 |
| MKN28 (Gastric Carcinoma) | > 0.3 | 1.44 | > 10 | > 5 | > 10 | > 3 | > 0.3 | > 10 | > 20 | > 10 | > 1 | > 0.3 | > 10 | > 10 | > 10 | > 1 | > 10 | > 10 | > 10 | > 10 | > 10 | > 10 | > 10 | > 1 | > 1 | > 3 | > 10 | > 1 | 0.456 | > 10 | > 1 | > 2 | > 0.001 | > 1 | > 1 |
